Here are results for 14 compounds from article PMC4481117 (Molecular Pain, 2015).

For one experiment, the system named is αMI-domain. In words: αMI-domain binding to cellulose-bound peptide libraries (SPOT, autoradiography, densitometry). The conditions noted are these: for Densitometry, % (αMI-domain binding): 9-mer peptides, 3-residue offset, N-acetylated, cellulose-bound via (β-Ala)2, 10 μg/ml 125I-labeled αMI-domain (active form), TBS 1 mM MgCl2, percentage of binding to peptide #1 (100 %); for αMI-domain binding (in words): cellulose-bound 9-mer libraries, 125I-labeled αMI-domain. The protocol:
Fig. 1 Screening of the peptide library spanning the sequence of dynorphin AB for αMI-domain binding. a, Amino acid sequence of dynorphin AB (residues 1–32). b, Cellulose membrane with the assembled peptide library consisting of 9-mer peptides with three-residue offset was incubated with ^125I-labeled αMI-domain and subjected to autoradiography followed by densitometry. The αMI-domain binding was observed as dark spots. Spot #10 contains only the β-Ala spacer. The αMI-domain binding was expressed as a percentage of binding to peptide #1, which was assigned a value 100 % and is shown as the numbers on the right of each sequence. The peptide energies that serve as a measure of probability each peptide can interact with the αMI-domain were calculated as described TEXT PRINTED IN THE PICTURE: (B) 1 ([…]): Densitometry, %: 100; Energy, J/mole: -13824 | (B) 2 ([…]): Densitometry, %: 100; Energy, J/mole: -17197 | (B) 3 ([…]): Densitometry, %: 75; Energy, J/mole: -9119 | (B) 4 ([…]): Densitometry, %: 60; Energy, J/mole: -650 | (B) 5 ([…]): Densitometry, %: 40; Energy, J/mole: -2880 | (B) 6 ([…]): Densitometry, %: 90; Energy, J/mole: -5355 | (B) 7 ([…]): Densitometry, %: 90; Energy, J/mole: -12541 | (B) 8 ([…]): Densitometry, %: 100; Energy, J/mole: -12344 | (B) 9 ([…]): Densitometry, %: 100; Energy, J/mole: -9738 | (B) 10 (β-alanine control): Densitometry, %: 0 | (B) Control peptide ([…]): Energy, J/mole: 11107
Peptide libraries derived from dynorphin AB assembled on cellulose membrane supports were prepared by parallel spot synthesis as previously described. Peptides were COOH-terminally attached to cellulose via a (β-Ala)2 spacer and were acetylated N-terminally. The membrane-bound peptides were tested for their ability to bind the αMI-domain according to a previously described procedure. In brief, the membrane was blocked with 1 % BSA and then incubated with 10 μg/ml of ^125I-labeled αMI-domain in TBS containing 1 mM MgCl2. After washing, the membrane was dried and the αMI-domain binding was visualized by autoradiography.
Additional file 1: Figure S1. Identification of residues in dynorphin A critical for α MI-domain binding. The dynorphin AB-based substitutional peptide libraries with single, double or triple mutations of basic residues were prepared by SPOT synthesis as described in Experimental Procedures. Mutated amino acid residues are shown in red. The membranes with synthesized peptide libraries were incubated with ^125I-labeled α MI-domain and subjected to autoradiography. The α MI-domain binding was analyzed by densitometry and expressed in arbitrary units with the strongest binding to wild-type peptides assigning a value of 4+. The peptides that partially lost their ability to bind the α MI-domain were grouped according to their activity and marked as 3+, 2+ and +. The peptides that lost their ability to bind the α MI-domain are marked with “NB “.

Experiment [1] deals with Mac-1 (Mac-1-HEK293 cells). In words: Inhibition of adhesion of Mac-1-HEK293 cells to Dyn A. The format is cell-based, Human. The conditions noted are these: 2 μM Dyn A coating; for Inhibition of adhesion to Dyn A in combination with NIF (in words): glycosaminoglycan 10 μg/ml with NIF; for Inhibition of adhesion to Dyn A (in words): wells preincubated with glycosaminoglycan 10 μg/ml, 20 min, alone. As to the method:
(§1) For testing the role of glucosaminoglycans in cell adhesion, dynorphin A-coated wells were preincubated with 100 μl of 10 μg/ml of chondroitin sulfate A, chondroitin sulfate B and heparin. Aliquots (5x10^4cells) were added to the wells coated with 2 μM dynorphin A and adhesion was performed as described in A. Adhesion in the absence of Mac-1 inhibitors and glucosaminoglycans was assigned a value of 100 %. The data shown are the means ± S.E. from four separate experiments each with triplicate measurements. d , microtiter plate wells were coated with different concentrations of dynorphin B and adhesion of Mac-1-expressing and wild-type HEK293 cells was determined as described in A. The data shown are means of triplicate determinations, and error bars represent S.E. The figure is representative of 5 experiments. e. calcein-labeled Mac-1-HEK293 cells were preincubated without or with 10 μg/ml of mAb 44a and heparin, added to the wells coated with 20 μM of dynorphin B and adhesion was performed as described in A. Adhesion in the absence of inhibitors was assigned a value of 100 %.
(§2) Adhesion assays were performed essentially as described previously. […] Cells were labeled with 10 μM calcein for 30 min at 37 °C and washed twice with Hanks’ Balanced salt solution (HBSS) containing 0.1 % BSA. Aliquots (100 μl) of labeled cells (5x10^5/ml) were added to each well and allowed to adhere for 30 min at 37 °C. The non-adherent cells were removed by two washes with PBS. Fluorescence was measured in a CytoFluorII fluorescence plate reader (Perceptive Biosystems, Framingham, MA). In inhibition experiments, cells were mixed with different concentrations of peptides, NIF or mAbs for 20 min at 22 °C before they were added to the wells coated with adhesive substrates. In a separate set of experiments, after coating plates with dynorphins and post-coating with 1 % PVP, plates were incubated with 100 μl of 10 μg/ml chondroitin sulfate A, chondroitin sulfate B, or heparin for 20 min at 22 °C. After aspirating the solution, labeled cells were added and cell adhesion was analyzed as above.

Experiment [2] relates to Mac-1 (Mac-1-HEK293 cells). In words: Inhibition of adhesion of Mac-1-HEK293 cells to fibrinogen by soluble peptides. In kind it is cell-based, Human. As to conditions: soluble peptide, 2.5 μg/mL fibrinogen coating. The protocol:
Fig. 4 Effect of soluble Dyn A on Mac-1-mediated cell adhesion to fibrinogen. a (left ordinate), calcein-labeled Mac-1-HEK293 cells were preincubated with different concentrations of dynorphin A (black bar), dynorphin B (open bar) or control peptide (gray bar) for […] at 22 °C and added to the wells of microtiter plates coated with 2.5 μg/mL fibrinogen. Cells were allowed to adhere for 30 minutes at 37 °C before removing nonadherent cells. […] Data are expressed as a percentage of total cell fluorescence
as §2, with “In a separate set of experiments, after coating plates with dynorphins and post-coating with 1 % PVP, plates were incubated with 100 μl of 10 μg/ml chondroitin sulfate A, chondroitin sulfate B, or heparin for 20 min at 22 °C.” left out

Experiment [3] has as its target T1, Mac-1 (Mac-1-expressing HEK293 cells) (Homo sapiens, UniProt P05107+P11215).
T1 construct: expressed in transfected cells
Kind of experiment: Adhesion of Mac-1-HEK293 cells to immobilized peptide. In kind it is cell-based. The conditions noted are these: coated wells, calcein-labeled cells, 30 min at 37 °C. The protocol:
as §1, §2

In the next experiment the test system is Mac-1. In words: Mac-1 mediated cell adhesion, effect of naloxone. As to conditions: control experiments, not shown. In kind it is cell-based.
In a further experiment the test system is U937 monocytic cells. Kind of experiment: Chemotaxis migration assay of U937 cells to Dyn A agarose gel. In kind it is cell-based, human. As to the method: Fig. 7 Chemotactic response of U937 cells to Dyn A. a, schematic representation of the experimental format. U937 cells (5x10^4) were placed in the center of the coverslip between two agar gels, one containing Dyn A and control gel without Dyn A. After 2 h at 37 °C, a series of photographs was taken in the direction of migration at 1-mm intervals to count the number of migrating cells. b , representative images after 2 h of migration show the cells within the starting point (marked with a cross; right panels) and at the border of the Dyn A-containing agar drop (left panels). […] Two bottom panels show the experimental condition with no Dyn A gradient. c, quantification of U937 cells migrated from the initial point after 2 h based on the results shown in A (right panel). Migration of control untreated U937 cells that completely migrated from the initial point of cell placement was assigned a value of 100 %. In contrast, there was no cell migration without a Dyn A gradient (0 %). […] A representative experiment is shown. d, distribution of U937 cells between two gels: Dyn A-containing (on the left) and without Dyn A (on the right). “0” on abscissa corresponds to the initial point where cells were loaded and the numbers show the distance that cells migrated in both directions from the starting point. All cells in each of 10 consecutive fields towards the Dyn A-containing and empty gels were counted and plotted as a distance from the starting point
Chemotaxis assays using U937 monocytic cells were performed on 22 × 22 mm cover slips. 1 % agarose (Life Technologies, Carlsbad, CA) was dissolved in HBSS by heating. After cooling, the agarose solution was mixed with Dyn A to obtain a final concentration of 10 μM. A 10 μl drop of warm agarose solution containing Dyn A was placed at one corner of the cover glass at ~1.5 mm from the edge. A control agarose drop was placed diagonally at the opposite corner of the cover glass. Agarose was allowed to solidify for 5 min, and the cover glasses were placed into wells of the 6-well plate filled with 5 ml of RPMI 1640 + 10 % FBS. A 10-μl aliquot of U937 cells (5x10^4) was loaded in the center of the cover glass and the plate was incubated for 2 h at 37 °C in a humidified atmosphere containing 5 % CO2. In this experimental format, the cells sediment approximately 5 min after loading, forming an ~4 mm circle, and begin to migrate towards the Dyn A-containing agarose drop. […] The photographs were taken at 1-mm intervals in the direction of cell migration towards the dynorphin-containing or control agarose drops without dynorphin A. The number of cells at the starting point and in each of 10 consecutive fields towards the dynorphin-containing and empty gels were counted and plotted as a distance from the starting point.

Another experiment relates to IC-21 macrophages. In words: Phagocytosis of Dyn A-coated latex beads by IC-21 macrophages. The format is cell-based, murine. As to conditions: heparin 20 μg/ml, naloxone 10 μM, rat IgG2b isotype control. The protocol: Fig. 8 Effect of Dyn A on phagocytosis of latex beads. a, Fluorescent latex beads (1x10^9/ml) were preincubated with Dyn A (50 μg/ml) for 40 min at 37 °C. Soluble peptide was removed from the beads by high-speed centrifugation. Peptide-coated beads were incubated with adherent IC-21 macrophages for 30 min at 37 °C. Nonphagocytosed beads were removed from cells by washing with PBS. […] Rat IgG2b was used as an isotype control for anti-αM mAb M1/70. Phagocytosis was quantified for five random fields per well using a 20x objective. Phagocytosis of Dyn A-treated beads was assigned as 100 %.
A suspension of fluorescent […] latex beads (1x10^9/ml) (FluoSpheres sulfate microspheres, Life Technologies, Carlsbad, CA) was incubated with 50 μg/ml of Dyn A for 40 min at 37 °C, then unbound peptide was removed by centrifugation. IC-21 murine macrophages (5 × 10^5/ml) were adhered on the cover glass for 30 min and 3 × 10^6 of peptide-coated beads were added to adherent IC-21 cells. After incubating for 30 minutes at 37 °C, nonphagocytosed beads were separated from macrophages by washing with 3x1 ml PBS and phagocytosed beads were counted in the presence of trypan blue. […] The ratio of beads per macrophage was quantified by taking photographs of five fields for each well using a Leica DM4000 B microscope (Leica Microsystems, Buffalo Grove, IL) with a 20 × objective.

NQKRYGGFL: the “Densitometry, % (αMI-domain binding)” value with αMI-domain is given as 90%.
Consider GFLRRQFKV, for which the “Densitometry, % (αMI-domain binding)” value in the experiment on αMI-domain is on record as 100%.
PKLKWDNQK: in the experiment on αMI-domain, the “Densitometry, % (αMI-domain binding)” value was 60% and the “αMI-domain binding (in words)” value is reported as “weakened their αMI-domain binding activity”.
For RIRPKLKWD, in the experiment on αMI-domain, the “Densitometry, % (αMI-domain binding)” value worked out at 75% and the “αMI-domain binding (in words)” value is given as “weakened their αMI-domain binding activity”.
Regarding chondroitin sulfate A, in experiment [1], the “Inhibition of adhesion to Dyn A in combination with NIF (in words)” value was “not exert a statistically significant inhibitory effect” and the “Inhibition of adhesion to Dyn A (in words)” value is listed as “not exert a statistically significant inhibitory effect”.
chondroitin sulfate B: in experiment [1], the “Inhibition of adhesion to Dyn A in combination with NIF (in words)” value was “not exert a statistically significant inhibitory effect” and the “Inhibition of adhesion to Dyn A (in words)” value is recorded as “not exert a statistically significant inhibitory effect”.
In the case of YGGFLRRIR, in the experiment with αMI-domain, the “Densitometry, % (αMI-domain binding)” value was 100% and the “αMI-domain binding (in words)” value was “highest affinities”.
As for FLRRIRPKL, in the experiment with αMI-domain, the “Densitometry, % (αMI-domain binding)” value amounted to 100% and the “αMI-domain binding (in words)” value is reported as “highest affinities”.
As for “DIDPKLKWD [control peptide, purchased from AnaSpec; also mutant in substitutional library]”, the “Inhibition of adhesion to fibrinogen (in words)” value in experiment [2] is given as “only slightly inhibitory”. The “Adhesion of Mac-1-HEK293 cells (in words)” value in experiment [3] was “failed to support adhesion”.
Consider RRQFKVVGG, for which the “Densitometry, % (αMI-domain binding)” value in the experiment on αMI-domain came to 100%.
Consider RYGGFLRRQ, for which the “Densitometry, % (αMI-domain binding)” value with αMI-domain is 90%.
Regarding `C=CCN1CC[C@]23c4c5ccc(O)c4O[C@H]2C(=O)CC[C@@]3(O)[C@H]1C5` [naloxone], the “Effect on Mac-1 mediated cell adhesion” value with Mac-1 was “does not affect Mac-1 mediated cell adhesion”. The “Mean distance travelled by inhibitor-treated cells” value in the experiment on U937 monocytic cells (Dyn A gradient, 2 h, mAb 44a 20 μg/ml or naloxone 10 μM) is given as ~ 5 mm. Also, the “Migration from initial point blocked” value with U937 monocytic cells (mAb 44a 20 μg/ml or naloxone 10 μM, 30 min preincubation, 2 h at 37 °C, representative experiment) was ~ 20%. The “Arrival of inhibitor-treated cells at Dyn A-containing drop” value in the experiment on U937 monocytic cells (mAb 44a 20 μg/ml or naloxone 10 μM, 2 h) is given as “only a few cells arrived”. For the same compound, in the experiment on U937 monocytic cells (naloxone 10 μM, Dyn A gradient, 2 h), the “Cells remaining at the start” value was ~ 20%. The “Effect on Dyn A-mediated phagocytosis (in words)” value in the experiment with IC-21 macrophages is “did not decrease the number of phagocytosed beads”.
As for heparin, in experiment [1], the “Inhibition of adhesion to Dyn A (in words)” value was “slight inhibition”. Also, in the experiment on IC-21 macrophages, the “Effect on Dyn A-mediated phagocytosis (in words)” value is on record as “did not decrease the number of phagocytosed beads”.
With KWDNQKRYG, in the experiment on αMI-domain, the “Densitometry, % (αMI-domain binding)” value is on record as 40% and the “αMI-domain binding (in words)” value is reported as “weakened their αMI-domain binding activity”.
